Series [1] can be described thus: Pharmacokinetic assay after repeated oral administration. The class given is in vivo, B-hPD-1/hPD-L1 mice. As to conditions: female, B-hPD-1/hPD-L1, mouse; plasma, 50 mg/kg oral once a day, after administration on the 18th day. How it is done:
Twenty-four female B-hPD-1/hPD-L1 mice aged 6-8 weeks were purchased from Biocytogen Jiangsu Gene Biotechnology Co., Ltd. The mice were randomly divided into 4 groups, 6 mice in each group. The test compounds were prepared in a vehicle containing 5% DMSO, 60% PEG400 and 35% purified water, including I-1 and 3 control molecules Example 17, Compound 14 (INCB086550), and Example 180. The compounds were administered orally at 50 mg/kg, once a day. The blood was collected alternately through the fundus venous plexus after the administration on the 18th day. The blood collection time points were 15 min, 30 min, 1 h, 2 h, 4 h, 8h, 24 h and 32h. About 0.1 mL of blood was collected in a centrifuge tube (anticoagulated with sodium heparin), and centrifuged at 5000 rpm for 5 min. Then the plasma was separated, and frozen at −20° C. for later detection. After the plasma samples were processed, the concentration of the compounds in the plasma was determined by liquid chromatography-mass spectrometry (LC-MS/MS). The pharmacokinetic parameters were calculated using Phoenix WinNonlin 7.0.

Series [2] can be described thus: Tumor tissue distribution assay in MC38-PD-L1 tumor-bearing mice. As to conditions: 50 mg/kg oral once/day; for concentration at 4 h / concentration at 24 h: female, B-hPD-1/hPD-L1 humanized, mouse, tumor tissue. In kind it is in vivo, B-hPD-1/hPD-L1 humanized mice. From the text: 16 B-hPD-1/hPD-L1 humanized female mice, aged 6-8 weeks were purchased from Biocytogen Jiangsu Gene Biotechnology Co., Ltd. After 1 week of adaptation, the mice were subcutaneously inoculated with MC38-PD-L1 cells at 2×10^6 cells/site. After the tumor grew to about […], the mice were divided into 4 groups, 4 mice in each group. The test compounds were formulated in a vehicle containing 5% DMSO, 60% PEG400 and 35% purified water, including I-1 and 3 control molecules Example 17, Compound 14 (INCB086550), and Example 180. The compounds were orally administered at 50 mg/kg, once/day. The blood and tumor tissue were collected 4 h and 24 h after administration on the 18th day. A certain amount of tissue was weighed, and added with phosphate-buffered saline (PBS) solution for homogenization. After the sample was processed, it was analyzed by LC-MS/MS to determine the concentration of the compound in plasma and tissue.

The subject of series [3] is PD-1/PD-L1-mediated T cell activation inhibitory signal. The series can be described thus: CHO-PD-L1-CD3L / Jurkat-PD-1-NFAT co-culture luciferase reporter assay. In kind it is cell-based. Particulars: Homo sapiens, co-culture 6 h, read-out: EC50 blocking PD-1/PD-L1-mediated T cell activation inhibitory signal. Here is the method: In order to detect the effect of the interaction between PD-1 and PD-L1 on T cell activation signals in the immune response, CHO-PD-L1-CD3L cells stably expressing human PD-L1 molecules and anti-CD3 single-chain antibody (ScFv) and Jurkat-PD-1-NFAT cells stably expressing human PD-1 molecule and NFAT reporter gene were constructed. When the two kinds of cells were co-incubated, the binding of anti-CD3ScFv on the surface of CHO cells and the membrane CD3 molecules of Jurkat cells would transmit an activation signal to Jurkat cells, but simultaneously, the binding of PD-L1 on the surface of CHO cells and PD-1 molecules on the surface of Jurkat cells would transmit an inhibitory signal inward to prevent expression of the luciferase reporter gene. When immune checkpoint antibodies or small molecule inhibitors were added, the binding of PD-1 and PD-L1 was blocked, the NFAT pathway activated by T cell activation signal mediated by cross-linking of CD3ScFv antibody and CD3 was no longer affected by the inhibitory signal, and the downstream luciferase reporter gene started to be expressed. A chemiluminescent signal proportional to reporter gene activation was detected by adding a catalytic substrate.
CHO-PD-L1-CD3L cells expressing human PD-L1 molecule and anti-CD3 single-chain antibody (ScFv) and Jurkat-PD-1-NFAT cells stably expressing human PD-1 molecule and NFAT reporter gene were independently constructed and provided by Dr. Chen Bo (KeyMed Bioscience (Chengdu) Co., Ltd.). Puromycin (Cat #540411) and Hygromycin B (Cat #V900372) for stable culture of transfected cells were purchased from Sigma, PMA (Cat #P1585) was purchased from Sigma, anti-human PD-L1 antibody (Cat #GMP-A066) was purchased from Novoprotein Company. Luciferase substrate solution (Cat #E6485) and luciferase-specific cell lysis solution 5× (Cat #E1531) were purchased from Promega. Fluorescence detection instrument Tecan (Spark 10M) was purchased from Switzerland Tecan Company.
(1) The day before the experiment, 100 μL of CHO-PD-L1-CD3L cells were inoculated in each well of a 96-well cell culture plate (about 4×10^4 cells/well) with a medium of DMEM/F12 containing 10% FBS, 8 μg/mL puromycin and 200 μg/mL hygromycin B, and cultured overnight at 37° C.
(2) The test compounds were diluted with 0.1% PBST into different concentration gradients, added into 96-well plates, and pre-incubated for 30 min. Jurkat-PD-1-NFAT cell count was adjusted to 2×10^5 cells/mL with the RPMI 1640 complete medium containing 10% FBS, […]8 μg/mL puromycin and 200 μg/mL hygromycin B. 100 ng/mL PMA (the stock solution was prepared with DMSO to a concentration of 10 mg/mL) was added to amplify T cell activation signal. 100 μL of the above Jurkat-PD-1-NFAT cells was added to each well of the 96-well plate for co-culture.
(3) When detecting the reaction, a control group was provided, including a solvent control without adding test compounds and a positive control with addition of anti-human PD-1 antibody as the experimental system. All detections were performed with duplicates.
(4) After continuous incubation at 37° C. for 6 h, 40 μL of 5× cell lysate was directly added, and mixed well. The plate was placed at room temperature for 10 min to completely lyse the cells. 50 μL of the lysed cell solution was transferred to a fluorescence detection plate, and added with 30 μL of luciferase substrate solution. The chemiluminescence detection program on the fluorescence detector was immediately selected for detection.
(5) The inhibition rate of T cell activation signal at the cellular level of the test compounds was calculated as follows: Inhibition rate of T cell activation signal (%)=(the original value of chemiluminescence in the detection well−solvent control)/(the highest original value of chemiluminescence detected in the compound detection well−solvent control)×100%. […]

For series [4] the following is noted: clinical studies; cited from earlier work.
[5] abbreviates: 4 h after administration on the 18th day.
[6] abbreviates: 24 h after administration on the 18th day.

One may read the AUC(0-t) as the area under the concentration-time curve up to a stated or last time point. By MRT is commonly meant a mean duration of stay, worked out from the concentration-time curve. As usually defined, the half-life is the time needed for the level to fall by half in the phase considered. High values mean slow decline, low ones rapid decline.

In series [1], `Cc1c(Nc2nccc3cc(CN4CC[C@@H](O)C4)cnc23)cccc1-c1cccc(-c2nc3cc(CN4CC[C@@H](C(=O)O)C4)cc(C#N)c3o2)c1C` [Compound 14 (INCB086550)] gave an AUC(0-t) of 15800 ng·h/mL, an MRT of 5.1 h and a half-life of 3.9 h. For the same molecule, in series [2] (setting [5]), the “Ratio of I-1 to control molecule (tumor tissue concentration)” value (“Ratio of I-1 to control molecule” below) was 5.9 and the concentration at 4 h is 6600 ng/g. For the same molecule, in series [2] (setting [6]), the “Ratio of I-1 to control molecule” value is given as 7.6 and the concentration at 24 h was determined as 3600 ng/g.

Take `[2H]c1c([2H])c(NC(=O)c2nc3c(n2C)CCN(CCC24CCC(COC)(CC2)C4)C3)c(F)c(-c2c([2H])c([2H])c([2H])c(NC(=O)c3nc4c(n3C)CCN(CCC35CCC(C(=O)O)(CC3)C5)C4)c2Cl)c1[2H]` [Compound I-15, 4-(2-(2-((2-chloro-2′-fluoro-3′-(5-(2-(4-(methoxymethyl)bicyclo[2.2.1]heptane-1-yl)ethyl)-1-methyl-4,5,6,7-tetrahydro-1H-imidazo[4,5-c]pyridine-2-carboxamido)-[1,1′-biphenyl]-3-yl-4,4′,5,5′,6,6′-d6)carbamoyl)-1-methyl-1,4,6,7-tetrahydro-5H-imidazo[4,5-c]pyridin-5-yl)ethyl)bi cyclo[2.2.1]heptane-1-carboxylic acid]: in series [3], the EC50 was determined as 18.9 nM.

For the molecule `Cn1c(C(=O)Nc2cccc(-c3cccc(NC(=O)c4nc5c(n4C)CCN(CCC46CCC(C(=O)O)(CC4)C6)C5)c3Cl)c2Cl)nc2c1CCN(CCC13CCC(C(=O)O)(CC1)C3)C2` [Example 17], in series [1], the AUC(0-t) amounted to 67400 ng·h/mL, the MRT amounted to 5.8 h and the half-life was 4.2 h. Further, in series [2] (setting [5]), the “Ratio of I-1 to control molecule” value is reported as 7.8 and the concentration at 4 h was 5000 ng/g. Moreover, in series [2] (setting [6]), the “Ratio of I-1 to control molecule” value amounted to 27.2 and the concentration at 24 h was 1000 ng/g.

In series [1], `Cn1c(C(=O)Nc2cccc(-c3cccc(NC(=O)c4nc5c(n4C)CCN(CC46CCC(C(=O)O)(CC4)C6)C5)c3Cl)c2Cl)nc2c1CCN(CCO)C2` [Example 180] showed an AUC(0-t) of 33700 ng·h/mL, an MRT of 5.6 h and a half-life of 3.8 h. For the same molecule, in series [2] (setting [5]), the “Ratio of I-1 to control molecule” value amounted to 8.7 and the concentration at 4 h was determined as 4500 ng/g. Besides, in series [2] (setting [6]), the “Ratio of I-1 to control molecule” value is 30.2 and the concentration at 24 h amounted to 900 ng/g.

As for atezolizumab: PD-1/PD-L1 antibody drug, the T1/2 in series [4] was 648 h.

Take nivolumab: PD-1/PD-L1 antibody drug: the T1/2 in series [4] is 605 h.

As for pembrolizumab: PD-1/PD-L1 antibody drug, in series [4], the T1/2 is 600 h.

Source of the values: patent US20260234164A1, “BIPHENYL COMPOUND AS IMMUNOMODULATOR, PREPARATION METHOD THEREFOR AND USE THEREOF” (SHENZHEN CHIPSCREEN BIOSCIENCES CO., LTD., priority 2021, published 2026).
